Data as given in patent EP2951180B1, “2,6,7,8 SUBSTITUTED PURINES AS HDM2 INHIBITORS” (Merck Sharp & Dohme Corp., priority 2013, dated 2014).
Where two headings read alike, the source gives them in different places.

Target: T1, HDM2 (Homo sapiens, UniProt Q00987)
T1 construct: Thioredoxin (N); made in house; host or cells: E. coli strain BL21(DE3)Rosetta
Test: HDM2 FRET assay (inhibition of binding of FITC labeled p53-pocket peptide to HDM2)
Conditions: for inhibition at 1 µM: read-out: inh. at 1000 nM (FRET); for IC50: read-out: FRET IC50
Procedure, shortened: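 Signal is read as the 520/495 nm emission ratio and converted to percent inhibition; nonlinear sigmoidal regression yields IC50. The assay mixes HDM2 (0.5 nM), FITC-p53 peptide (3 nM) and Tb anti-His antibody (0.25 nM) at 0.1% DMSO.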

T1 sequence (Q00987 17-125): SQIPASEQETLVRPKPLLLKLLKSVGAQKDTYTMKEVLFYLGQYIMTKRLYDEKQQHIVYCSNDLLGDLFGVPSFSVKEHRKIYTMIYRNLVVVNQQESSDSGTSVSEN

Cc1cccc(-c2nc3nc(C(=O)O)nc(N(C)C(C4CC4)C4CC4)c3n2Cc2ccc(C(F)(F)F)cc2)c1 [Example 6.84, 6-[(dicyclopropylmethyl)(methyl)amino]-8-(3-methylphenyl)-7-[4-(trifluoromethyl)benzyl]-7H-purine-2-carboxylic acid]
inhibition at 1 µM: 46%

Cc1cccc(-c2nc3nc(C(=O)O)nc(N4CCCC4C(C)C)c3n2Cc2ccc(C(F)(F)F)cc2)c1 (stereo not shown) [Example 6.85, 6-[2-(1-methylethyl)pyrrolidin-1-yl]-8-(3-methylphenyl)-7-[4-(trifluoromethyl)benzy 1]-7H-purine-2-carboxylic acid]
IC50 (Table 6): 723 nM

CCCC1CCCN1c1nc(C(=O)O)nc2nc(-c3cccc(C)c3)n(Cc3ccc(C(F)(F)F)cc3)c12 (stereo not shown) [Example 6.86, 8-(3-methylphenyl)-6-(2-propylpyrrolidin-1-yl)-7-[4-(trifluoromethyl)benzyl]-7H-purine-2-carboxylic acid]
IC50 (Table 6): 754 nM

Cc1cccc(-c2nc3nc(C(=O)O)nc(N4CCCC4C(C)(C)C)c3n2Cc2ccc(C(F)(F)F)cc2)c1 (stereo not shown) [Example 6.87, 6-(2-tert-butylpyrrolidin-1-yl)-8-(3-methylphenyl)-7-[4-(trifluoromethyl)benzyl]-7H-purine-2-carboxylic acid]
inhibition at 1 µM: 43%

Cc1cccc(-c2nc3nc(C(=O)O)nc(N(C)C(C)C4CC4)c3n2Cc2ccc(C(F)(F)F)cc2)c1 (stereo not shown) [Example 6.88, 6-[(1-cyclopropylethyl)(methyl)amino]-8-(3-methylphenyl)-7-[4-(trifluoromethyl)benzyl]-7H-purine-2-carboxylic acid]
inhibition at 1 µM: 33%

CCC(C)CN(C)c1nc(C(=O)O)nc2nc(-c3cccc(C)c3)n(Cc3ccc(C(F)(F)F)cc3)c12 (stereo not shown) [Example 6.89, 6-[methyl(2-methylbutyl)amino]-8-(3-methylphenyl)-7-[4-(trifluoromethyl)benzyl]-7H-purine-2-carboxylic acid]
IC50 (Table 6): 730 nM

Cc1cccc(-c2nc3nc(C(=O)O)nc(N(C)CC4CC4(C)C)c3n2Cc2ccc(C(F)(F)F)cc2)c1 (stereo not shown) [Example 6.90, 6-{[(2,2-dimethylcyclopropyl)methyl](methyl)amino}-8-(3-methylphenyl)-7-[4-(trifluoromethyl)benzyl]-7H-purine-2-carboxylic acid]
inhibition at 1 µM: 34%

CCCCCN(C)c1nc(C(=O)O)nc2nc(-c3cccc(C)c3)n(Cc3ccc(C(F)(F)F)cc3)c12 [Example 6.91, 6-[methyl(pentyl)amino] -8-(3-methylphenyl)-7-[4-(trifluoromethyl)benzyl]-7H-purine-2-carboxylic acid]
IC50 (Table 6): 731 nM

Cc1cccc(-c2nc3nc(C(=O)O)nc(N4CCCC4C4CCC4)c3n2Cc2ccc(C(F)(F)F)cc2)c1 (stereo not shown) [Example 6.92, 6-(2-cyclobutylpyrrolidin-1-yl)-8-(3-methylphenyl)-7-[4-(trifluoromethyl)benzyl]-7H-purine-2-carboxylic acid]
IC50 (Table 6): 352 nM

Cc1cccc(-c2nc3nc(C(=O)O)nc(N4CCC4C4CCC4)c3n2Cc2ccc(C(F)(F)F)cc2)c1 (stereo not shown) [Example 6.93, 6-(2-cyclobutylazetidin-1-yl)-8-(3-methylphenyl)-7-[4-(trifluoromethyl)benzyl]-7H-purine-2-carboxylic acid]
IC50 (Table 6): 806 nM

Cc1cccc(Nc2nc(C(=O)O)nc3nc(-c4cccc(C)c4)n(Cc4ccc(C(F)(F)F)cc4)c23)c1 [Example 6.94, 8-(3-methylphenyl)-6-[(3-methylphenyl)amino]-7-[4-(trifluoromethyl)benzyl]-7H-purine-2-carboxylic acid]
inhibition at 1 µM: 32%

Cc1cccc(-c2nc3nc(C(=O)O)nc(N4CCCCC4C4CCC4)c3n2Cc2ccc(C(F)(F)F)cc2)c1 (stereo not shown) [Example 6.95, 6-(2-cyclobutylpiperidin-1-yl)-8-(3-methylphenyl)-7-[4-(trifluoromethyl)benzyl]-7H-purine-2-carboxylic acid]
IC50 (Table 6): 271 nM

Cc1cccc(-c2nc3nc(C(=O)O)nc(N[C@H](CCCO)C4CCC4)c3n2Cc2ccc(Cl)cc2)c1 [Example 7.1, 7-(4-chlorobenzyl)-6-{[(1R)-1-cyclobutyl-4-hydroxybutyl]amino}-8-(3-methylphenyl)-7H-purine-2-carboxylic acid]
IC50 (Table 7): 105 nM

Cc1cccc(-c2nc3nc(C(=O)O)nc(N[C@H](CCCO)C4CCC4)c3n2Cc2ccc(C(F)(F)F)cc2)c1 [Example 7.2, 6-{[(1R)-1-cyclobutyl-4-hydroxybutyl]amino}-8-(3-methylphenyl)-7-[4-(trifluoromethyl)benzyl]-7H-purine-2-carboxylic acid]
IC50 (Table 7): 41 nM

Cc1cccc(-c2nc3ncnc(N[C@H](CCCO)C4CCC4)c3n2Cc2ccc(C(F)(F)F)cc2)c1 [Example 7.3, (4R)-4-cyclobutyl-4-({8-(3-methylphenyl)-7-[4-(trifluoromethyl)benzyl]-7H-purin-6-yl}amino)butan-1-ol]
IC50 (Table 7): 3240 nM

CCC[C@@H](Nc1nc(C(=O)O)nc2nc(-c3cccc(C)c3)n(Cc3ccc(C(F)(F)F)cc3)c12)C1CCC1 [Example 7.5, 6-{[(1R)-1-cyclobutylbutyl]amino}-8-(3-methylphenyl)-7-[4-(trifluoromethyl)benzyl]-7H-purine-2-carboxylic acid]
IC50 (Table 7): 142 nM

Cc1cccc(-c2nc3nc(C(=O)O)nc(N[C@H](CCC(=O)NCCO)C4CCC4)c3n2Cc2ccc(C(F)(F)F)cc2)c1 [Example 7.7, 6-({(1R)-1-cyclobutyl-4-[(2-hydroxyethyl)amino]-4-oxobutyl}amino)-8-(3-methylphenyl)-7-[4-(trifluoromethyl)benzyl]-7H-purine-2-carboxylic acid]
IC50 (Table 7): 832 nM

Cc1cccc(-c2nc3nc(C(=O)O)nc(N4CCC[C@@H]4C4CCC4)c3n2Cc2ccc(C(F)(F)F)cc2)c1 [Example 7.8, 6-[(2R)-2-cyclobutylpyrrolidin-1-yl]-8-(3-methylphenyl)-7-[4-(trifluoromethyl)benzyl]-7H-purine-2-carboxylic acid]
IC50 (Table 7): 188 nM

Cc1cccc(-c2nc3ncnc(N4CCC[C@@H]4C4CCC4)c3n2Cc2ccc(C(F)(F)F)cc2)c1 [Example 7.9, 6-[(2R)-2-cyclobutylpyrrolidin-1-yl]-8-(3-methylphenyl)-7-[4-(trifluoromethyl)benzyl]-7H-purine]
IC50 (Table 7): 4480 nM

Cc1cccc(-c2nc3nc(C(=O)O)nc(N[C@H](CCCN4CCN(C)CC4)C4CCC4)c3n2Cc2ccc(C(F)(F)F)cc2)c1 [Example 7.10, 6-{[(1R)-1-cyclobutyl-4-(4-methylpiperazin-1-yl)butyl]amino}-8-(3-methylphenyl)-7-[4-(trifluoromethyl)benzyl]-7H-purine-2-carboxylic acid]
IC50 (Table 7): 94.3 nM

Cc1cccc(-c2nc3nc(C(=O)O)nc(N[C@H](CCCN(C)C)C4CCC4)c3n2Cc2ccc(C(F)(F)F)cc2)c1 [Example 7.11, 6-{[(1R)-1-cyclobutyl-4-(dimethylamino)butyl]amino}-8-(3-methylphenyl)-7-[4-(trifluoromethyl)benzyl]-7H-purine-2-carboxylic acid]
IC50 (Table 7): 323 nM

Cc1cccc(-c2nc3nc(C(=O)O)nc(N[C@H](CCC(N)=O)C4CCC4)c3n2Cc2ccc(C(F)(F)F)cc2)c1 [Example 7.12, 6-{[(1R)-4-amino-1-cyclobutyl-4-oxobutyl]amino}-8-(3-methylphenyl)-7-[4-(trifluoromethyl)benzyl]-7H-purine-2-carboxylic acid]
IC50 (Table 7): 55.3 nM
